Results as given in patent US11365194B2, “Analgesic drug using PAC1 receptor antagonistic drug” (KAGOSHIMA UNIVERSITY, priority 2017, dated 2022).

Columns and labels:
[1] = molecular target: T1, mouse PAC receptor-expressing CHO cell (PAC1/CHO cell) (Mus musculus, UniProt P70205); assay: CREB phosphorylation by PACAP stimulus, Western blot, PAC1/CHO cell; type: cell-based; details: for suppression of CREB phosphorylation by PACAP (1 nM): PAC1/CHO cell, compound 10 μM to 10 nM, 30 minutes before 1 nM PACAP; for effect of suppressing CREB phosphorylation compared with basic compound: at 1 nM, 2o versus PA-8, 3d versus PA-9, FIG. 3
T1 construct: expressed in transfected cells; host or cells: CHO cells
T1 sequence (P70205 21-496): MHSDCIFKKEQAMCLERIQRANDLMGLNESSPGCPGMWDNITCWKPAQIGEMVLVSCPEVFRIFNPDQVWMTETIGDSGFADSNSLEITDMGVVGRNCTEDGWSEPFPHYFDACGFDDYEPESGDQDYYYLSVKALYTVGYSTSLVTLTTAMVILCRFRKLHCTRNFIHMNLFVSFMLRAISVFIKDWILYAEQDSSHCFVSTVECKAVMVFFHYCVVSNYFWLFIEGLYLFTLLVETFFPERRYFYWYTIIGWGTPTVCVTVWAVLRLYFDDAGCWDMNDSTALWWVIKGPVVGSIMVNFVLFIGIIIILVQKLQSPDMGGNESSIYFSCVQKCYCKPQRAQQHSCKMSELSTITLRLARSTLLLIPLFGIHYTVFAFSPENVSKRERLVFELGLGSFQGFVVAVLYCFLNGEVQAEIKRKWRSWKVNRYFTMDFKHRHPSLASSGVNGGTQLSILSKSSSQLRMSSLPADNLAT
Experimental: The effect of each compound on the phosphorylation of CREB (cAMP-responsive element-binding protein) produced by a PACAP stimulus was examined by Western blot analysis using an anti-phosphorylated CREB (pCREB) antibody with a mouse PAC receptor-expressing CHO cell (PAC1/CHO cell) and a mouse VPAC1 receptor-expressing CHO cell (VPAC1/CHO cell).
Specifically, treatment with a compound (PA-8, PA-9, compounds 2j, 20 and 3d) at 10 μM to 10 nM or a solvent therefor (VEH: 0.1% DMSO-containing phosphate buffer solution) was performed for 30 minutes, 1 nM PACAP was then added, and protein was recovered within 30 minutes after a PACAP stimulus.

[2] = test system: mechanical allodynia induced by PACAP intrathecal administration; assay: Mechanical allodynia induced by PACAP intrathecal administration (von Frey test); type: in vivo, mouse; details: simultaneous i.t.
Experimental: When single i.t. administration of PACAP (100 pmol/5 L) to mouse was performed, mechanical stimulus sensitive phenomenon (mechanical allodynia) occurred over a long period of time (for at least three months after the administration) (Non Patent Literature 1). […] The mechanical sensitive phenomenon induced by PACAP was not suppressed in an example in which a solvent (VEH: 0.2% DMSO-containing artificial cerebrospinal fluid) was used instead of the compounds.
(§1) Male ddY mice (6 to 12 weeks old) were used, and the threshold to a mechanical stimulus was evaluated by the vonFrey test. Specifically, the 50% withdrawal reflex threshold (Threshold) was calculated in accordance with the method of Chaplan et al. (Chaplan et al., J. Neurosci. Meth. 53, 55-63, 1994). Each compound was dissolved in 99.7% DMSO, and then the resulting solution was diluted with an artificial cerebrospinal fluid for preparation (final concentration of DMSO was 0.2%).

[3] = test system: mechanical allodynia induced by spinal nerve injury; assay: Spinal nerve ligation (SNL) model, i.t. administration on 14th day, mechanical allodynia; type: in vivo, mouse; details: for anti-mechanical allodynia effect: 100 pmol i.t. on 14th day after operation
Experimental: as §1
Spinal nerve ligation (SNL) models in which the fourth lumbar cord spinal nerves of male ddY (6 to 12 weeks old) were ligated with silk thread were used. The i.t. administration of a solvent (VEH: 10% DMSO-containing saline), PA-8, the compound 2j or the compound 2o (FIG. 9A), or PA-9 or the compound 3d (FIG. 9B) was performed on the 14th day after the operation. The method of causing a mechanical stimulus is the same as that of Example 5, and data were acquired for 24 hours after i.t. administration over time.

PAC1 receptor = molecular target: T2, PAC1 receptor (Homo sapiens, UniProt P41586); details: Non Patent Literature 3; cited from earlier work
T2 sequence (P41586 21-468): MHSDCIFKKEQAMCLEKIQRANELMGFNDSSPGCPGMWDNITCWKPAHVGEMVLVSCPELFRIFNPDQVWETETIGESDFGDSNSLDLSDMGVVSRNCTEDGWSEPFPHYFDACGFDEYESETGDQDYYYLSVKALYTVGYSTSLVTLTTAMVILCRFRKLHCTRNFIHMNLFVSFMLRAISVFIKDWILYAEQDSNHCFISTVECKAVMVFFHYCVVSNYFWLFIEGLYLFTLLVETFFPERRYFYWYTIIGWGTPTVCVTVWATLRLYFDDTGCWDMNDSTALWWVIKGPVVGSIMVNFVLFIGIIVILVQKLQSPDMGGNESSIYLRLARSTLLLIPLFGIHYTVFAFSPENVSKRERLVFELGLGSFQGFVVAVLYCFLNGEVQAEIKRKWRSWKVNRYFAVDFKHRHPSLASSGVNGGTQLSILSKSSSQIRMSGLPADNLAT

[4] = Non Patent Literature 4; cited from earlier work
[5] = test system: spontaneous pain-like behavior induced by PACAP intrathecal administration; assay: Spontaneous pain-like behavior induced by PACAP intrathecal administration; type: in vivo, mouse; details: for suppression of PACAP-induced spontaneous pain-like behavior: simultaneous i.t. with PACAP (100 pmol), counted for 30 minutes
Experimental: When PACAP (100 pmol/5 L) is intrathecally administered to a mouse in a single dose (single i.t. injection), spontaneous pain-like behavior in which the mouse licks or bites the rear half of the body occurs about 5 minutes after the administration (and continues for several hours) (Ohnou et al. J. Pharmacol. Sci. 130, 194-203, 2016). […] Male ddY mice (6 to 12 weeks old) were used, and the behaviors were taken on video. The number of times of spontaneous pain-like behaviors for 30 minutes after the administration was counted.

[6] = test system: cold allodynia induced by oxaliplatin; assay: Cold allodynia induced by oxaliplatin, drug on fourth day after oxaliplatin (acetone test); type: in vivo, mouse; details: 10 mg/kg, single oral administration; for suppression of cold allodynia by oxaliplatin: fourth day after oxaliplatin
Experimental: Oxaliplatin was dissolved in 5% glucose-containing saline and intraperitoneally administered at a dose of 2 mg/kg. A drug was administered on the fourth day after oxaliplatin administration. Male ddY mice (6 to 12 weeks old) were used. The axis of ordinates is the duration of the behavior of licking and paw waving after the application of an acetone drop (10 L) to the footpad of a hind paw.

[7] = test system: cold allodynia induced by oxaliplatin; assay: Onset of cold allodynia induced by oxaliplatin, drug given around oxaliplatin administration; type: in vivo, mouse; details: 10 mg/kg oral
Experimental: Oxaliplatin was dissolved in 5% glucose-containing saline and intraperitoneally administered at a dose of 2 mg/kg. Drug administration (oral administration) was performed 30 minutes before oxaliplatin administration (FIG. 7A); or 3 times: 30 minutes before oxaliplatin administration, 2.5 hours after the administration, and 5.5 hours after the administration (FIG. 7B). Male ddY mice (6 to 12 weeks old) were used. The axis of ordinates is the duration of the behavior of licking and paw waving after the application of an acetone drop (10 μL) to the footpad of a hind paw.

[8] = test system: mechanical allodynia induced by spinal nerve injury; assay: Spinal nerve ligation (SNL) model, repeated intraperitoneal administration, mechanical allodynia; type: in vivo, mouse; details: for suppression of the onset of mechanical allodynia: 30 mg/kg i.p. before ligation and once a day for 7 days
Experimental: as §1
Spinal nerve ligation (SNL) models in which the fourth lumbar cord spinal nerves of male ddY (6 to 12 weeks old) were ligated with silk thread were used. A solvent (VEH: 10% DMSO-containing saline). PA-8, the compound 2j or the compound 20 was intraperitoneally administered (30 mg/kg) 5 to 10 minutes before the ligation, and once a day for 7 days thereafter. The method of causing a mechanical stimulus is the same as that of Example 5, and data from the first day after the ligation (D1) are data 1 hour after the administration of VEH or the drugs.

[9] = test system: pain-like behavior induced by formalin; assay: Pain-like behavior induced by formalin; type: in vivo, mouse; details: 0.1 to 10 nmol i.t.
Experimental: The first phase is direct action of formalin on sensory nerves (to around 10 minutes after formalin administration). In the second phase (from around 10 minutes to 60 minutes after formalin administration), hypersensitization formed in spinal dorsal horn cells during the first phase (a type of plastic phenomenon in the nervous system also called central sensitization) is a main cause, and inflammatory reaction at the site of formalin administration contributes importantly.

[10] = 30 minutes before oxaliplatin or 3 administrations

SMILES	suppression of CREB phosphorylation by PACAP (1 nM) [1]	effect of suppressing CREB phosphorylation compared with basic compound [1]	suppression of long-term mechanical allodynia induced by PACAP ([2]; 100 pmol, FIG. 5C)	mechanical threshold 24 hours after the administration ([3]; 100 pmol i.t.)	anti-mechanical allodynia effect [3]	suppression of PACAP-induced spontaneous pain-like behavior ([5]; 10 pmol)	suppression of PACAP-induced spontaneous pain-like behavior ([5]; 100 pmol)	suppression of long-term mechanical allodynia induced by PACAP ([2]; 10 or 100 pmol, FIGS. 5A and B)	suppression of cold allodynia by oxaliplatin [6]	suppression of the onset of cold allodynia by oxaliplatin [7, 10]	suppression of the onset of mechanical allodynia [8]	effect on first phase reaction [9]	effect on second phase reaction [9]	further results
O=C(NCCc1c[nH]cn1)C1CC(=O)N(c2n[nH]c3c(Cl)cccc23)C1 (centres unmarked) [compound 3d, N-[2-(1H-imidazol-4-yl)ethyl]-1-(7-chloro-1H-indazol-3-yl)-5-oxo-3-pyrrolidinecarboxamide]	suppressed CREB phosphorylation by PACAP (1 nM) depending on the concentration	significantly stronger effect of suppressing CREB phosphorylation	strongly suppressed	maintained the mechanical threshold highly significantly	anti-mechanical allodynia effect equivalent to PA-8 and the compound 2j									
O=C(NCCc1c[nH]cn1)C1CC(=O)N(c2n[nH]c3ccccc23)C1 (centres unmarked) [PA-9, reference compound]	suppressed CREB phosphorylation by PACAP (1 nM) depending on the concentration		strongly suppressed	maintained the mechanical threshold highly significantly	anti-mechanical allodynia effect equivalent to PA-8 and the compound 2j									PAC1 receptor antagonistic action (PAC1 receptor): have PAC1 receptor antagonistic action; analgesic effect [4]: have analgesic effect
Nc1nc2c(c(=O)[nH]1)C(c1cccc(OC(F)(F)F)c1)CC(=O)N2 (centres unmarked) [compound 2o, 2-Amino-5-(3-trifluoromethoxyphenyl)-5,8-dihydro-3H,6H-pyrido[2,3-d]pyrimidine-4,7-dione]	suppressed CREB phosphorylation by PACAP (1 nM)	significantly stronger effect of suppressing CREB phosphorylation			suppressed the onset of mechanical allodynia significantly	did not exhibit a significant suppressing effect	suppressing effect equivalent to PA-8 and the compound 2j	strongly suppressed	suppressed cold allodynia by oxaliplatin significantly over 4 to 5 hours	suppressed the onset of cold allodynia by oxaliplatin significantly	suppressed the onset of mechanical allodynia still more strongly	did not affect the first phase reaction	suppressed the second phase reaction significantly depending on the concentration	time of onset of effect on cold allodynia [6]: effective from an earlier period of time (the first hour after administration); suppression of the onset of cold allodynia by oxaliplatin ([7]; three administrations (FIG. 7B)): suppressed the onset almost completely; mechanical threshold level during administration ([8]; 30 mg/kg i.p. once a day): maintained the mechanical threshold at a level equivalent to an uninjured side; mechanical threshold after discontinuation of administration ([8]; 30 mg/kg i.p., discontinued on the seventh day, versus VEH group): maintained the mechanical threshold highly significantly for at least 7 days thereafter
CCOc1cccc(C2CC(=O)Nc3nc(N)[nH]c(=O)c32)c1 (centres unmarked) [compound 2j, 2-Amino-5-(3-ethoxyphenyl)-5,8-dihydro-3H,6H-pyrido[2,3-d]pyrimidine-4,7-dione]	suppressed depending on the concentration				suppressed the onset of mechanical allodynia significantly	suppressed the PACAP response significantly	suppressed the PACAP response significantly	strongly suppressed	suppressed cold allodynia by oxaliplatin significantly over 4 to 5 hours	suppressed the onset of cold allodynia by oxaliplatin significantly	did not suppress the onset of mechanical allodynia	did not affect the first phase reaction	did not affect the second phase reaction	effect on PACAP response compared with PA-8 ([5]; 10 pmol i.t., versus PA-8 10 pmol): significantly stronger than that of PA-8 (10 pmol); maximum effect compared with compound 2o ([3]; 100 pmol i.t., 3 hours after the administration): significantly inferior as compared with the compound 2o
